Assays:
[1] = molecular target: Sterol 14-alpha demethylase (Trypanosoma cruzi (strain CL Brener), UniProt Q7Z1V1); assay: Inhibition of Trypanosoma cruzi CYP51
[2] = system: Trypanosoma cruzi; assay: Antitrypanosomal activity against Trypanosoma cruzi; type: functional, organism-based

Sterol 14-alpha demethylase, sequence (Q7Z1V1 whole entry): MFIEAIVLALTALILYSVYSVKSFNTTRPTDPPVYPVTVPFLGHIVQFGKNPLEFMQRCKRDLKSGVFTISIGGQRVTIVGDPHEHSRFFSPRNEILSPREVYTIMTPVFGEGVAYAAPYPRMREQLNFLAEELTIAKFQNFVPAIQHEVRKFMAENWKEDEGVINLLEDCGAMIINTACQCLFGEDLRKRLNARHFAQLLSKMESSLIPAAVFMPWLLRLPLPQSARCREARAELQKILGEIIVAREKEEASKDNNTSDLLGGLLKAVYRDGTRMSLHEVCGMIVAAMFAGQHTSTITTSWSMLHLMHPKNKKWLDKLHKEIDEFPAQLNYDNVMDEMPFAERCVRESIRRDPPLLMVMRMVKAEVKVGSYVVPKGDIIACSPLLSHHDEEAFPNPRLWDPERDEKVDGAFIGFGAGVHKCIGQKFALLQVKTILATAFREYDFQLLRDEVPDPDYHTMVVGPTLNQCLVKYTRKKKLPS

Row | Compound | IC50 [1] [nM] | EC50 [2] [nM]
1 | CCC(=O)CCCCCC(Oc1ccc2ccccc2c1)c1ncc(Cc2ccncc2)[nH]1 (stereo in doubt; 35) | 34 | –
2 | CCC(=O)CCCCCC(Oc1ccc2ccccc2c1)c1ncc(Cc2ccncc2)[nH]1 (stereo in doubt; 11) | 52 | –
3 | CCC(=O)CCCCCC(Oc1ccc2ccccc2c1)c1ncc(Cc2ccncc2)[nH]1 (stereo in doubt; 34) | 41 | –
4 | O=C(Cn1ccnc1[N+](=O)[O-])NCc1ccccc1 [BENZNIDAZOLE] | – | 2000
5 | CC(OCc1ccncc1)c1ncc(-c2ccc3ccccc3c2)[nH]1 (centres undefined) | 77 | –
6 | CC1CS(=O)(=O)CCN1/N=C/c1ccc([N+](=O)[O-])o1 (centres undefined) [NIFURTIMOX] | – | 8000
7 | CCC(=O)CCCCCC(OCc1ccncc1)c1ncc(-c2ccc3ccccc3c2)o1 (centres undefined) | 53 | –
8 | CCC(=O)CCCCCC(Oc1ccc2ccccc2c1)c1ncc(Cc2ccccc2)[nH]1 (centres undefined) | 2900 | –
9 | CCC(=O)CCCCCC(Oc1cc2ccccc2nc1OC)c1ncc(Cc2ccncc2)[nH]1 (centres undefined) | – | 2000
